Measurements: PMC8704606, “The Artemiside-Artemisox-Artemisone-M1 Tetrad: Efficacies against Blood Stage P. falciparum Parasites, DMPK Properties, and the Case for Artemiside” (Pharmaceutics, 2021)
Where two headings read alike, the source gives them in different places.

Assays:
[1] = Cytotoxicity (LDH assay) against HepG2 cells; assay type: cell-based; conditions: human, HepG2 cells (hepatocellular carcinoma)
Procedure: Cytotoxicity against mammalian hepatocellular carcinoma cells (HepG2 cells) was determined using the lactate dehydrogenase assay (LDH, Biovision Inc., Milpitas, CA, USA). […] Compound working solutions were prepared from 10 mM stock solutions (100% DMSO) in complete DMEM to a final DMSO (Sigma-Aldrich) conc. of <0.1% (vol/vol). […] Data analysis was performed using GraphPad Prism (version 6) software.

[2] = Pharmacokinetics and metabolism after iv and po administration; assay type: in vivo
Procedure: The plasma concentration-time profiles of the parent compounds and metabolites after administration iv and po to male C57/BL6 mice are presented in Figure 2, Figure 3 and Figure 4. Artemiside was quantifiable up to 24 h in all mice dosed iv and up to 7 h po (lower limit of quantitation LLOQ = 1.6 ng/mL or 0.004 μM) (Figure 2). […] For both artemiside and artemisox, the metabolite artemisone was quantifiable up to 3 h in both the po and iv groups (Figure 2 and Figure 3). Thereby it is confirmed that artemiside is rapidly converted via artemisox into artemisone. Artemisone itself was quantifiable up to three hours post dose (Figure 4). The mean circulating concentrations for the compounds and their metabolites are presented in Table S3a–f in the Supplementary Material 1. The metabolite M1 was also detected upon administration of artemiside, artemisox, and artemisone, but it was not quantified here; chromatograms indicating the presence of M1 are illustrated in Figure S3a–c in the Supplementary Material 1. In addition, the plasma concentration-time curves for artemiside and its metabolites artemisone and M1 following iv and po dosing in the same murine model are presented and discussed in detail elsewhere (cf. Figure 4 in reference).
All work was conducted with prior approval of the animal ethics committee of the University of Cape Town in accordance with the South African National Standards for the Care and Use of Animals for Scientific Purposes and guidelines from the South African Department of Health. The requirements and methods for the pharmacokinetics in vivo involving po and iv drug administration, sample extraction, analyses of samples by LC-MS/MS, and data analyses are described elsewhere. For the animal experiments and formulations, the compounds were dissolved in a 10:60:30 mixture of N,N-dimethylacetamide-polypropylene glycol-polyethylene glycol for intravenous dosing (iv) at 5 mg/kg. For the oral dose (po), compounds were individually dosed as a suspension in 0.5% (w/v) hydroxypropylmethylcellulose in water with 0.2% Tween80 at 50 mg/kg to male C57/BL6 mice (n = 3 for each group). For PK sampling, blood samples were collected at predetermined times (0.08, 0.25, 0.5, 1, 3, 5, 7, and 24 h) for both po and iv dosing via tail bleeding into heparinized tubes, centrifuged, and the plasma samples were stored at −80 °C until extraction. For preparation of samples, the frozen plasma samples were thawed and 15 μL was extracted by liquid–liquid extraction using a universal buffer (pH8) containing 10 ng/mL of the internal standard and ethyl acetate, and the extract was vortexed and centrifuged. Calibration standards and quality controls were extracted following the same procedure. Supernatants were dried down, reconstituted, and injected onto the column for LC-MS/MS analysis using an AB SCIEX 5500 QTRAP instrument coupled to an Agilent 1260 HPLC detection system as previously described.

SMILES: C[C@H]1[C@H](N2CCS(=O)(=O)CC2)O[C@@H]2O[C@@]3(C)CC[C@H]4[C@H](C)CC[C@@H]1[C@@]24OO3 [Artemisone 7, Artemisone]
- IC50 at 24 h [1]: > 50 µM
- Mean iv circulating concentration ([2]; 5 h after iv 5 mg/kg artemisone 7): blq
- Mean iv circulating concentration ([2]; 5 h after iv 5 mg/kg artemisox 6): blq
- Mean po circulating concentration ([2]; 5 h after po 50 mg/kg artemiside 5): blq
- Mean po circulating concentration ([2]; 5 h after po 50 mg/kg artemisone 7): blq
- Mean iv circulating concentration ([2]; 7 h after iv 5 mg/kg artemiside 5): blq
- Mean iv circulating concentration ([2]; 7 h after iv 5 mg/kg artemisone 7): blq
- Mean iv circulating concentration ([2]; 7 h after iv 5 mg/kg artemisox 6): blq
- Mean po circulating concentration ([2]; 7 h after po 50 mg/kg artemiside 5): blq
- Mean po circulating concentration ([2]; 7 h after po 50 mg/kg artemisone 7): blq
- Mean po circulating concentration ([2]; 7 h after po 50 mg/kg artemisox 6): blq
- Mean iv circulating concentration ([2]; 24 h after iv 5 mg/kg artemiside 5): blq
- Mean iv circulating concentration ([2]; 24 h after iv 5 mg/kg artemisone 7): blq
- Mean iv circulating concentration ([2]; 24 h after iv 5 mg/kg artemisox 6): blq
- Mean po circulating concentration ([2]; 24 h after po 50 mg/kg artemiside 5): blq
- Mean po circulating concentration ([2]; 24 h after po 50 mg/kg artemisone 7): blq
- Mean po circulating concentration ([2]; 24 h after po 50 mg/kg artemisox 6): blq
- quantifiable up to, post dose ([2]; artemisone itself dosed, iv 5 mg/kg and po 50 mg/kg (Figure 4)): up to three
- t½ ([2]; iv 5 mg/kg, parent drug, mean ± SD, 5 mg/kg): 23.4 ± 4.8 min
- concentration at 0.08 h ([2]; male, C57/BL6, mouse, plasma, iv, 5 mg/kg, 0.08 h after iv 5 mg/kg artemiside 5, read-out: Mean iv circulating concentration): 117 nM
- concentration at 0.08 h ([2]; male, C57/BL6, mouse, plasma, iv, 5 mg/kg, 0.08 h after iv 5 mg/kg artemisone 7, read-out: Mean iv circulating concentration): 3860 nM
- concentration at 0.08 h ([2]; male, C57/BL6, mouse, plasma, iv, 5 mg/kg, 0.08 h after iv 5 mg/kg artemisox 6, read-out: Mean iv circulating concentration): 1110 nM
- concentration at 0.25 h ([2]; male, C57/BL6, mouse, plasma, iv, 5 mg/kg, 0.25 h after iv 5 mg/kg artemiside 5, read-out: Mean iv circulating concentration): 247 nM
- concentration at 0.25 h ([2]; male, C57/BL6, mouse, plasma, iv, 5 mg/kg, 0.25 h after iv 5 mg/kg artemisone 7, read-out: Mean iv circulating concentration): 2510 nM
- concentration at 0.25 h ([2]; male, C57/BL6, mouse, plasma, iv, 5 mg/kg, 0.25 h after iv 5 mg/kg artemisox 6, read-out: Mean iv circulating concentration): 1400 nM
- concentration at 0.5 h ([2]; male, C57/BL6, mouse, plasma, iv, 5 mg/kg, 0.5 h after iv 5 mg/kg artemiside 5, read-out: Mean iv circulating concentration): 270 nM
- concentration at 0.5 h ([2]; male, C57/BL6, mouse, plasma, iv, 5 mg/kg, 0.5 h after iv 5 mg/kg artemisone 7, read-out: Mean iv circulating concentration): 1720 nM
- concentration at 0.5 h ([2]; male, C57/BL6, mouse, plasma, iv, 5 mg/kg, 0.5 h after iv 5 mg/kg artemisox 6, read-out: Mean iv circulating concentration): 1250 nM
- concentration at 1 h ([2]; male, C57/BL6, mouse, plasma, iv, 5 mg/kg, 1 h after iv 5 mg/kg artemiside 5, read-out: Mean iv circulating concentration): 160 nM
- concentration at 1 h ([2]; male, C57/BL6, mouse, plasma, iv, 5 mg/kg, 1 h after iv 5 mg/kg artemisone 7, read-out: Mean iv circulating concentration): 831 nM
- concentration at 1 h ([2]; male, C57/BL6, mouse, plasma, iv, 5 mg/kg, 1 h after iv 5 mg/kg artemisox 6, read-out: Mean iv circulating concentration): 659 nM
- concentration at 3 h ([2]; male, C57/BL6, mouse, plasma, iv, 5 mg/kg, 3 h after iv 5 mg/kg artemiside 5, read-out: Mean iv circulating concentration): 12 nM
- concentration at 3 h ([2]; male, C57/BL6, mouse, plasma, iv, 5 mg/kg, 3 h after iv 5 mg/kg artemisone 7, read-out: Mean iv circulating concentration): 28 nM
- concentration at 3 h ([2]; male, C57/BL6, mouse, plasma, iv, 5 mg/kg, 3 h after iv 5 mg/kg artemisox 6, read-out: Mean iv circulating concentration): 7 nM
- concentration at 5 h ([2]; male, C57/BL6, mouse, plasma, iv, 5 mg/kg, 5 h after iv 5 mg/kg artemiside 5, read-out: Mean iv circulating concentration): 5 nM
- half-life ([2]; male, C57/BL6, mouse, plasma, iv, 5 mg/kg, iv 5 mg/kg, parent drug, mean ± SD, read-out: t½ (converted)): 24 min
- concentration at 0.08 h ([2]; male, C57/BL6, mouse, plasma, po, 50 mg/kg, 0.08 h after po 50 mg/kg artemiside 5, read-out: Mean po circulating concentration): 1000 nM
- concentration at 0.08 h ([2]; male, C57/BL6, mouse, plasma, po, 50 mg/kg, 0.08 h after po 50 mg/kg artemisone 7, read-out: Mean po circulating concentration): 1630 nM
